This note sets out measurements from ChEMBL document CHEMBL4033771, “Development of Potent Myostatin Inhibitory Peptides through Hydrophobic Residue-Directed Structural Modification” (ACS Med Chem Lett, 2017).

Active and inactive are the calls of the source. The rule behind the calls is not given here. Where a SMILES comes first, the peptide text is derived from it. The star is where a group is joined. Acetyl(2-naphthyloxy) = O=C(COc1ccc2ccccc2c1)*

Assay [1] deals with Mus musculus. As to the kind of experiment: Increase in tibialis anterior muscle weight in wild type mouse at 20 nmol, im after 28 days relative to control. The assay is classed as functional.
For assay [2], the system named is Mus musculus. The assay is described as follows: Increase in tibialis anterior muscle weight in caveolin 3-deficient limb gridle muscular destrophy 1C mouse model at 20 nmol, im after 28 days relative to control. The class given is functional.
The subject of assay [3] is Mus musculus. The assay is described as follows: Increase in tibialis anterior muscle weight in mdx mouse at 0.75 mM, im administered on day 0 and 14 measured on day 42 relative to control. The class given is functional.
The subject of assay [4] is Mus musculus. The assay is described as follows: Increase in tibialis anterior muscle weight in wild type ICR mouse at 0.75 mM, im administered on day 0 and 14 measured on day 42 relative to control. The assay is classed as functional.
In assay [5] the test system is Mus musculus. The assay is described as follows: Increase in gastrocnemius muscle weight in wild type ICR mouse at 0.75 mM, im administered on day 0 and 14 measured on day 42 relative to control. The class given is functional.
Assay [6] relates to Mus musculus. As to the kind of experiment: Increase in gastrocnemius muscle fiber size in mdx mouse at 0.75 mM, im administered on day 0 and 14 measured on day 42 by Hematoxylin and Eosin staining based assay. The assay is classed as functional, organism-based.

For the compound `CC[C@H](C)[C@H](NC(=O)[C@H](C)NC(=O)[C@H](CCC(=O)O)NC(=O)[C@@H](NC(=O)[C@H](CCCNC(=N)N)NC(=O)[C@H](CO)NC(=O)[C@H](Cc1ccc(O)cc1)NC(=O)[C@H](CCCNC(=N)N)NC(=O)[C@@H](NC(=O)[C@H](CC(N)=O)NC(=O)[C@H](CCC(N)=O)NC(=O)[C@H](CCCNC(=N)N)NC(=O)[C@H](Cc1c[nH]c2ccccc12)NC(=O)[C@H](C)NC(=O)[C@@H](N)CS)[C@@H](C)O)[C@@H](C)CC)C(=O)N[C@@H](CCCCN)C(=O)N[C@H](C(=O)N[C@@H](CCC(N)=O)C(=O)N[C@H](C(=O)N[C@@H](CC(C)C)C(=O)N[C@@H](CO)C(=O)N[C@@H](CCCCN)C(=O)N[C@@H](CC(C)C)C(=O)N[C@@H](CCCNC(=N)N)C(=O)N[C@@H](CC(C)C)C(=O)N[C@@H](CCC(=O)O)C(=O)N[C@H](C(=O)N[C@@H](C)C(=O)N1CCC[C@H]1C(N)=O)[C@@H](C)O)[C@@H](C)CC)[C@@H](C)CC` (H-CAWRQNTRYSRIEAIKIQILSKLRLETAP-NH2), the values for the Activity in assay [1] and in assay [2] were 10.6% and 20.6%, respectively.
With `CC[C@H](C)[C@H](NC(=O)[C@H](CCCNC(=N)N)NC(=O)[C@H](CO)NC(=O)[C@H](Cc1ccc(O)cc1)NC(=O)[C@H](CCCNC(=N)N)NC(=O)[C@@H](NC(=O)[C@H](CC(N)=O)NC(=O)[C@H](CCC(N)=O)NC(=O)[C@H](CCCNC(=N)N)NC(=O)COc1ccc2ccccc2c1)[C@@H](C)O)C(=O)N[C@@H](CCC(=O)O)C(=O)N[C@@H](Cc1c[nH]c2ccccc12)C(=O)N[C@H](C(=O)N[C@@H](CCCCN)C(=O)N[C@H](C(=O)N[C@@H](CCC(N)=O)C(=O)N[C@H](C(=O)N[C@H](C(=O)N[C@@H](CO)C(=O)N[C@@H](CCCCN)C(=O)N[C@@H](CC(C)C)C(=O)N[C@@H](CCCNC(=N)N)C(=O)N[C@@H](CC(C)C)C(N)=O)[C@@H](C)CC)[C@@H](C)CC)[C@@H](C)CC)[C@@H](C)CC` ({Acetyl(2-naphthyloxy)}-RQNTRYSRIEWIKIQIISKLRL-NH2), the Activity is 10 - 19% in assay [3], 10 - 34% in assay [4] and 11 - 35% in assay [5]. In addition, the result in assay [6] was Active.
